Measured values from the NIST ThermoML archive (doi:10.1016/j.tca.2006.11.008).
± gives the expanded uncertainty stated by the source.

Assay: molar enthalpy of vaporization or sublimation
Conditions: Crystal, Static calorimetry

Row | molar enthalpy (386 K) [kJ/mol] | molar enthalpy (426.8 K) [kJ/mol] | SMILES
1 | 100 ± 1.3 |  | NC(=O)N1CCCCC1 [1-piperidinecarboxamide]
2 |  | 124 ± 1.3 | NC(=O)C1CCNCC1 [4-piperidinecarboxamide]
3 | 112 ± 1.3 |  | NC(=O)C1CCCNC1 (stereo not drawn) [3-piperidinecarboxamide]
